From patent US7259167B2, “Antimalarial and antiproliferative pharmacophore models, novel tryptanthrin compounds having increased solubility, and methods of making and using thereof” (United States of America as Represented by the Secretary of …, priority 2002, dated 2007)

Tests used:
[1] = Hemin binding activity assay by 1H NMR (pseudocontact shifts); details: DMSO-d6
Description: As provided in Example 5, the hemin binding affinity for a series of tryptanthrin compounds with functional groups at the 8-position with different electron donating/withdrawing characteristics corresponding with the pharmacophore model of the present invention was determined by ^1H NMR. The binding interaction was measured as a function of the induced up-field shift in the chemical shift as a function of increasing hemin concentration. ^1H spectra of selected compounds each analog with an increasing concentration of hemin were collected and analyzed for the effect of the pseudocontact shifts.
It is well known that bio-molecules containing the paramagnetic species Fe^+3 induce via pseudocontact effect (a thru-space paramagnetic interaction, similar to the thru-space diopolar interaction or NOE) up-field chemical shifts of the ^1H, ^13C, ^15N atoms of bound ligands. See Serge Moreau et al. (1985) Biochemica et. Biophysica Acta 107-116; Alam, S. L., et al. (1998) J. Biomol. NMR 11:119-133; and Kalodimos, C. G., et al. (2000) J. Inorg. Biochem. 79:371-380, which are herein incorporated by reference. […] See Crowley, P. B., et al. (2001) J. Am. Chem. Soc. 123:10444-10453, which is herein incorporated by reference. Consequently, the closer a particular proton on the ligand is to the Fe^+3 atom, the greater the induced Δδ.
The hemin binding affinity for a series of tryptanthrin compounds with functional groups at the 8-position with different electron donating/withdrawing characteristics corresponding with the pharmacophore model of the present invention was determined using ^1H NMR. The binding interaction was measured as a function of the induced up-field shift in the chemical shift as a function of increasing hemin concentration. ^1H spectra of each analog with an increasing concentration of hemin were collected and analyzed for the effect of the pseudocontact shifts.
To each sample, a 100 or 200 μl aliquot of a known concentration of hemin dissolved in 1.0 ml of DMSO-d6 was added. The concentrations of the tryptanthrin compounds compounds ranged from 3.0 to 8.0 mg per 500 μl of DMSO. A corresponding solution of hemin in DMSO was prepared to maintain a molar ratio of tryptanthrin compounds to hemin in the range of 1:1.0 to 1:1.5.
All ^1H NMR data was collected using a Bruker Avance-600 spectrometer using methods known in the art. See e.g. Wang, J., et al. (2001) J. Am. Chem. Soc. 123:8080-8088, which is herein incorporated by reference. The proton spectra were collected at 300 K, using a spectral width of 9090.9 Hz. All spectra were acquired with 64k data points in F2. All chemical shifts were referenced internally to TMS (0.00 ppm). The spectra were processed using XWINNMR (Bruker BioSpin Corporation, Billerica, Mass.) on a Silicon Graphics O2 workstation (Silicon Graphics, Mountain View, Calif.). Each data set was multiplied by a Gaussain window function with 0.3 Hz line broadening in each dimension before transformation.

[2] = Solubility of DN49 in various solvents; format: physicochemical; details: for solubility: organic solvent or mixture
Description: The solubility of DN49 (WR288510) was tested in various solvents to determine the properties encouraging solubility. […] An N—H group on an aromatic compound might be forming a complex with tryptanthrin. […] (200 mM) concentration in a solvent. The temperature is a close approximation to the temperature required to achieve solubility. Color is the color of the solution; DN49 is a yellow compound and colors other than yellow indicate close interaction between solvent and solute. Precipitate is whether or not DN49 precipitated out upon cooling to room temperature.

[3] = system: P. berghei P-line; assay: Bioavailability and efficacy of DN49 in infected mice; format: in vivo
Description: On day 0, each mouse in groups 1 to 7 was inoculated intraperitoneally with 0.1 ml, 1.0×10^6 P. berghei P-line infected red blood cell from donor mice diluted in PBS.
DN49 was a yellow powder and dissolved completely in hot DMSO. The hot DMSO solution was then diluted 1:10 in PBS.
On days 3 to 5, 0.2 ml of the three dosages at 2.5, 1.25, 0.625 mg/kg of DN49 were administered intravenously by a 29G, 0.5-inch needle (Groups 2 to 4). In addition, 0.2 ml of the three dosages at 30, 15, 7.5 mg/kg of DN49 were administered orally by a 20G, 2.5-inch needle (Groups 5 to 7). Drug administrations were performed once daily for 3 days. Group 1 served as vehicle control, and PBS was administered orally.

## O=C1c2ccccc2-n2c1nc1ncccc1c2=O [DN49]
[1]; hemin induced pseudocontact chemical shift
  Maximum induced Δδ: 0.558 ppm
[1]; slope of Δδ v. hemin concentration
  Concentration dependence Δδ: 0.09778 ppm/mole %
[2]; 1,4-dioxane
  Precipitate upon cooling to room temperature: yes
[2]; 1,4-dioxane, 80 °C
  solubility: > 25 mg/mL
[2]; 3,4-dihydro-2H-pyran
  solubility: < 25 mg/mL
[2]; Aniline
  Precipitate upon cooling to room temperature: No
[2]; Aniline, 18 °C
  solubility: > 25 mg/mL
[2]; Benzoic acid
  Precipitate upon cooling to room temperature: Yes
[2]; Benzoic acid, 50 °C
  solubility: > 25 mg/mL
[2]; Benzyl alcohol, 30 °C, Benzyly alcohol
  solubility: > 25 mg/mL
[2]; Benzyly alcohol
  Precipitate upon cooling to room temperature: No
[2]; Diethylamine
  solubility: < 25 mg/mL
[2]; Dimethylsulfoxide, Dimethylsufoxide
  solubility: < 25 mg/mL
[2]; Indole
  Precipitate upon cooling to room temperature: Solidified
[2]; Indole, 53 °C
  solubility: > 25 mg/mL
[2]; Isoquinoline
  Precipitate upon cooling to room temperature: Solidified
  solubility: > 25 mg/mL
[2]; N-methylbenzylamine
  Precipitate upon cooling to room temperature: No
  solubility: > 25 mg/mL
[2]; N-methylpiperidine
  solubility: < 25 mg/mL
[2]; Nitrobenzene
  Precipitate upon cooling to room temperature: Yes
  solubility: > 25 mg/mL
[2]; Phenol
  Precipitate upon cooling to room temperature: solidified
  solubility: > 25 mg/mL
[2]; Piperidine
  Precipitate upon cooling to room temperature: No
  solubility: > 25 mg/mL
[2]; Pyridine
  Precipitate upon cooling to room temperature: Yes
  solubility: > 25 mg/mL
[2]; Pyrrole
  Precipitate upon cooling to room temperature: No
  solubility: > 25 mg/mL
[2]; Pyrrolidine
  Precipitate upon cooling to room temperature: No
  solubility: > 25 mg/mL
[2]; Tetrahydrofuran
  solubility: < 25 mg/mL
[2]; Toluene
  solubility: < 25 mg/mL
[2]; Triethylamine
  solubility: < 25 mg/mL
[3]; 2.5 mg/kg intravenously once daily at study days 3 to 5
  extension of life of mice: 2 days
[3]; 30 mg/kg orally once daily at study days 3 to 5
  extension of life of mice: 2 days
[3]; Group 2, 2.5 mg/kg intravenously once daily days 3 to 5
  mean parasitemia on day 6: 54.75%
[3]; Group 3, 1.25 mg/kg intravenously once daily days 3 to 5
  mean parasitemia on day 6: 55.75%
[3]; Group 4, 0.625 mg/kg intravenously once daily days 3 to 5
  mean parasitemia on day 6: 61.18%
[3]; Group 5, 30 mg/kg orally once daily days 3 to 5
  mean parasitemia on day 6: 56.11%
[3]; Group 6, 15 mg/kg orally once daily days 3 to 5
  mean parasitemia on day 6: 54.26%
[3]; Group 7, 7.5 mg/kg orally once daily days 3 to 5
  mean parasitemia on day 6: 64.23%
[3]; IV 0.625-2.5 mg/kg, oral 7.5-30 mg/kg
  acute toxicity or other deaths prior to day 6: no acute toxicity
[3]; at the dosages given (up to 2.5 mg/kg IV, 30 mg/kg oral)
  Toxic effects: not observed
[3]; dosages below 2.5 mg/kg intravenously or 30 mg/kg orally
  activity at lower dosages: no significant activity
